{
  "source": "ChEMBL document CHEMBL3351755",
  "about": "“Elements and modulation of functional dynamics” (J Med Chem, 2014)",
  "key": {"[1]": {"molecular_target": "T1, 6-phosphogluconolactonase (Trypanosoma brucei, UniProt Q9GRG6)", "T1 sequence (Q9GRG6 whole entry)": "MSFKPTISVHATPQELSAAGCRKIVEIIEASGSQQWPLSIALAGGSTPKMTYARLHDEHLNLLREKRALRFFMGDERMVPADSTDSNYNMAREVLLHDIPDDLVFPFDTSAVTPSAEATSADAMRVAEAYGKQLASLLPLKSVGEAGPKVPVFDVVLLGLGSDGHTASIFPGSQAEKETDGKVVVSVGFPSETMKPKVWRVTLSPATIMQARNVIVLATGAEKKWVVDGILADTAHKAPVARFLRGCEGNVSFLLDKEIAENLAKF", "assay": "Binding affinity to Trypanosoma brucei 6-phospho-gluconalactonase by NMR analysis"}, "[2]": {"assay": "Binding affinity to mouse major urinary protein by NMR analysis"}, "[3]": {"assay": "Binding affinity to hen egg-white lysozyme by NMR analysis", "set-up": "species or system Gallus gallus"}, "Galectin-3": {"molecular_target": "Galectin-3 (Homo sapiens, UniProt P17931)", "sequence (P17931 whole entry)": "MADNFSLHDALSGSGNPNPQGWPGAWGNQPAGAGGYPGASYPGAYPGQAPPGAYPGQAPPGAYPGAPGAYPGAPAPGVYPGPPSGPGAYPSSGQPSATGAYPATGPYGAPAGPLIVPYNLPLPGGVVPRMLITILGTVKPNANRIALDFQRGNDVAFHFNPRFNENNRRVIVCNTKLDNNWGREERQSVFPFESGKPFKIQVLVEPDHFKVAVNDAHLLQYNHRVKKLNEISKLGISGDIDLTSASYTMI", "assay": "Binding affinity to galectin-3 (unknown origin)"}, "[4]": {"assay": "Binding affinity to oxalocrotonate tautomerase (unknown origin) by NMR analysis"}, "[5]": {"assay": "Binding affinity to ketosteroid isomerase (unknown origin) by NMR analysis"}, "[6]": {"assay": "Binding affinity to Escherichia coli glucose/galactose binding protein by NMR analysis"}, "[7]": {"assay": "Binding affinity to quail siderocalin Q83 by NMR analysis", "set-up": "species or system Galliformes"}, "[8]": {"assay": "Binding affinity to Escherichia coli ribose binding protein by NMR analysis"}, "[9]": {"molecular_target": "T2, Thiopurine S-methyltransferase (Homo sapiens, UniProt P51580)", "T2 sequence (P51580 whole entry)": "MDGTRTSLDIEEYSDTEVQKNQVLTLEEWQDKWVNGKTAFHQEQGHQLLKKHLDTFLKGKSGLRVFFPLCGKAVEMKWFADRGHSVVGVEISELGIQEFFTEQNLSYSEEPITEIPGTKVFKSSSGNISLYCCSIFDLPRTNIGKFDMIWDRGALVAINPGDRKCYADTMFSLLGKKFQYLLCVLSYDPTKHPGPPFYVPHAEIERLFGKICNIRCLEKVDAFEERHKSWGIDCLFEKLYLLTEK", "assay": "Binding affinity to thiopurine methyltransferase (unknown origin) by NMR analysis"}},
  "data": [
    {"compound": "O=C(O)[C@H](O)[C@@H](O)[C@H](O)[C@H](O)COP(=O)(O)O", "values": [
      {"measurement": "Kd", "setting": "[1]", "value": 10, "unit": "µM"}
    ]},
    {"compound": "c1ccc(Nc2cccc3ccccc23)cc1", "values": [
      {"measurement": "Kd", "setting": "[2]", "value": 0.032, "unit": "µM"}
    ]},
    {"compound": "N[C@H]1[C@H](O[C@H]2[C@H](O)[C@@H](N)[C@H](O[C@H]3[C@H](O)[C@@H](N)C(O)O[C@@H]3CO)O[C@@H]2CO)O[C@H](CO)[C@@H](O)[C@@H]1O", "note": "(stereo partly drawn)", "values": [
      {"measurement": "Kd", "setting": "[3]", "value": 14, "unit": "µM"}
    ]},
    {"compound": "CC(=O)N[C@H]1C(O)O[C@H](CO)[C@@H](O[C@@H]2O[C@H](CO)[C@H](O)[C@H](NC(=O)c3ccccc3)[C@H]2O)[C@@H]1O", "note": "(stereo partly drawn)", "values": [
      {"measurement": "Kd", "setting": "Galectin-3", "value": 18.2, "unit": "µM"}
    ]},
    {"compound": "COc1c(F)c(F)c(C(=O)N[C@H]2[C@@H](O)[C@@H](CO)O[C@@H](O[C@H]3[C@H](O)[C@@H](NC(C)=O)C(O)O[C@@H]3CO)[C@@H]2O)c(F)c1F", "note": "(stereo partly drawn)", "values": [
      {"measurement": "Kd", "setting": "Galectin-3", "value": 3.3, "unit": "µM"}
    ]},
    {"compound": "CCC(C)C1=NCCS1", "note": "(stereo not drawn)", "values": [
      {"measurement": "Kd", "setting": "[2]", "value": 0.9, "unit": "µM"}
    ]},
    {"compound": "CC1(C)SCN(C(=O)[C@@H](CS)Cc2ccccc2)[C@H]1C(=O)O", "values": [
      {"measurement": "Kd", "setting": "[4]", "value": 590, "unit": "µM"}
    ]},
    {"compound": "C[C@]12CC[C@H]3[C@@H](CCC4=CC(=O)CC[C@@H]43)[C@@H]1CC[C@@H]2O", "values": [
      {"measurement": "Kd", "setting": "[5]", "value": 5.5, "unit": "µM"}
    ]},
    {"compound": "COc1nccnc1CC(C)C", "values": [
      {"measurement": "Kd", "setting": "[2]", "value": 0.3, "unit": "µM"}
    ]},
    {"compound": "OC[C@H]1OC(O)[C@H](O)[C@@H](O)[C@@H]1O", "note": "(stereo partly drawn) [DEXTROSE]", "values": [
      {"measurement": "Kd", "setting": "[6]", "value": 0.29, "unit": "µM"}
    ]},
    {"compound": "O=C(N[C@H]1COC(=O)[C@@H](NC(=O)c2cccc(O)c2O)COC(=O)[C@@H](NC(=O)c2cccc(O)c2O)COC1=O)c1cccc(O)c1O", "note": "[ENTEROBACTIN]", "values": [
      {"measurement": "Kd", "setting": "[7]", "value": 0.0005, "unit": "µM"}
    ]},
    {"compound": "O[C@@H]1[C@H](O)[C@H](O)CO[C@H]1O", "note": "[RIBOSE (PYRANOSE)]", "values": [
      {"measurement": "Kd", "setting": "[8]", "value": 0.17, "unit": "µM"}
    ]},
    {"compound": "Nc1ncnc2c1ncn2[C@@H]1O[C@H](C[C@@H](N)CC[C@H](N)C(=O)O)[C@@H](O)[C@H]1O", "note": "[SINEFUNGIN]", "values": [
      {"measurement": "Kd", "setting": "[9]", "value": 10, "unit": "µM"}
    ]}
  ]
}
